Experimental data reported in ChEMBL document CHEMBL1201862, “PubChem BioAssay data set” (2004).
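Briefly, cells in 96-well plates were exposed to five compound concentrations for 48 h, and endpoints were estimated by linear interpolation. The concentration for 50% growth inhibition is given as GI50.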 Active and inactive are the calls of the source. Rule as the data show it: active = GI50 up to about 1.1 µM and inactive = higher.

Experiments:
Test in all cases: growth of human tumour cells (NCI), 48 h
TK-10 = system: TK-10
T47D = system: T47D
HCT-116 = system: HCT-116
A549 = system: A549
UACC-257 = system: UACC-257
A498 = system: A498
NCI-H522 = system: NCI-H522
NCI-H226 = system: NCI-H226
DU-145 = system: DU-145
SK-MEL-5 = system: SK-MEL-5
SK-OV-3 = system: SK-OV-3
MCF7 = system: MCF7
NCI/ADR-RES = system: NCI/ADR-RES
RPMI-8226 = system: RPMI-8226
HOP-92 = system: HOP-92
LOX IMVI = system: LOX IMVI
Malme-3M = system: Malme-3M
SF-268 = system: SF-268
HL-60 = system: HL-60
M19-MEL = system: M19-MEL

| SMILES | GI50 (TK-10) | GI50 (T47D) | GI50 (HCT-116) | GI50 (A549) | GI50 (UACC-257) | GI50 (A498) | GI50 (NCI-H522) | GI50 (NCI-H226) | GI50 (DU-145) | GI50 (SK-MEL-5) | GI50 (SK-OV-3) | GI50 (MCF7) | GI50 (NCI/ADR-RES) | GI50 (RPMI-8226) | GI50 (HOP-92) | GI50 (LOX IMVI) | GI50 (Malme-3M) | GI50 (SF-268) | GI50 (HL-60) | GI50 (M19-MEL) |
| --- | --- | --- | --- | --- | --- | --- | --- | --- | --- | --- | --- | --- | --- | --- | --- | --- | --- | --- | --- | --- |
| COC(=O)c1ccc2c(O)c(O)ccc2c1 | 21.5 µM (inactive) | 19.5 µM (inactive) | 16.7 µM (inactive) | 22.2 µM (inactive) | 14.9 µM (inactive) | 21.3 µM (inactive) | 15.2 µM (inactive) | 23.1 µM (inactive) | 16.4 µM (inactive) | 4.45 µM (inactive) | 18.1 µM (inactive) | 18.5 µM (inactive) | 20.1 µM (inactive) | 14.7 µM (inactive) | 18.4 µM (inactive) | 2.87 µM (inactive) | 11.8 µM (inactive) | 19.4 µM (inactive) | 2.02 µM (inactive) |  |
| N=C(CC(=O)Nc1ccc(Cl)cc1)Nc1ccccc1 | > 100 µM (inactive) |  | > 100 µM (inactive) | > 100 µM (inactive) | > 100 µM (inactive) | > 100 µM (inactive) | > 100 µM (inactive) | > 100 µM (inactive) |  | > 100 µM (inactive) | > 100 µM (inactive) |  |  |  |  | > 100 µM (inactive) | > 100 µM (inactive) | > 100 µM (inactive) | > 100 µM (inactive) | > 100 µM (inactive) |
| CC(Oc1ccccc1)C(=O)NN (stereo not drawn) | > 100 µM (inactive) | > 100 µM (inactive) | > 100 µM (inactive) | > 100 µM (inactive) | > 100 µM (inactive) | > 100 µM (inactive) | 79.3 µM (inactive) | > 100 µM (inactive) | > 100 µM (inactive) | > 100 µM (inactive) | > 100 µM (inactive) | > 100 µM (inactive) | > 100 µM (inactive) | > 100 µM (inactive) | > 100 µM (inactive) | > 100 µM (inactive) | > 100 µM (inactive) | > 100 µM (inactive) | > 100 µM (inactive) |  |
| C/C=C(\C)c1cc(=O)c2c(C)cc3c(c2o1)C(=O)c1c(O)c(C2CC(C)(N(C)C)C(OC(C)=O)C(C)O2)cc(C2CC(N(C)C)C(O)C(C)O2)c1C3=O (stereo not drawn) | 1.06 µM (active) | 1.53 µM (inactive) | 0.185 µM (active) | 0.41 µM (active) | 1.49 µM (inactive) | 1.48 µM (inactive) | 0.172 µM (active) | 1.31 µM (inactive) | 0.258 µM (active) | 0.625 µM (active) | 1.95 µM (inactive) | 0.157 µM (active) | 1.41 µM (inactive) | 1.08 µM (active) | 1.45 µM (inactive) | 0.731 µM (active) | 0.352 µM (active) | 0.655 µM (active) | 0.438 µM (active) |  |
| COc1cc2nc(-c3cccs3)nc(N3CCN(c4ccccc4C(F)(F)F)CC3)c2cc1OC | 45 µM (inactive) | > 100 µM (inactive) | > 100 µM (inactive) | > 100 µM (inactive) | > 100 µM (inactive) | > 100 µM (inactive) | 90.4 µM (inactive) | > 100 µM (inactive) | > 100 µM (inactive) | 33.3 µM (inactive) | > 100 µM (inactive) | 46.2 µM (inactive) | > 100 µM (inactive) | 51.3 µM (inactive) | 21.4 µM (inactive) | > 100 µM (inactive) | > 100 µM (inactive) | 60.3 µM (inactive) | 3.87 µM (inactive) |  |
| C/C(CC(=O)CCCC(=O)Nc1ccc(Cl)cc1Cl)=N/NC(=O)CC#N | > 100 µM (inactive) |  | > 100 µM (inactive) | > 100 µM (inactive) | > 100 µM (inactive) | > 100 µM (inactive) |  | > 100 µM (inactive) |  | > 100 µM (inactive) | > 100 µM (inactive) |  |  | > 100 µM (inactive) |  | > 100 µM (inactive) | > 100 µM (inactive) | > 100 µM (inactive) | > 100 µM (inactive) | > 100 µM (inactive) |
| CCOc1ccccc1NC(=O)CSc1nnc(Cc2ccccc2)o1 | 71.1 µM (inactive) |  | 30.6 µM (inactive) | > 100 µM (inactive) | 29.7 µM (inactive) | 66.7 µM (inactive) | 18.2 µM (inactive) | 25.2 µM (inactive) |  | 19.3 µM (inactive) | 44.9 µM (inactive) |  |  | 35.6 µM (inactive) |  | 15.5 µM (inactive) | 15.6 µM (inactive) | 23.9 µM (inactive) | 35.7 µM (inactive) | 34.5 µM (inactive) |
| CCCCCCCCCCCc1nnc(N)o1 | > 100 µM (inactive) |  | > 100 µM (inactive) | > 100 µM (inactive) | > 100 µM (inactive) |  | 67 µM (inactive) | > 100 µM (inactive) |  |  | > 100 µM (inactive) |  |  | > 100 µM (inactive) | > 100 µM (inactive) | > 100 µM (inactive) | > 100 µM (inactive) | 99.1 µM (inactive) | 37.2 µM (inactive) | > 100 µM (inactive) |
| COc1cc(C(=O)C/C(CCC(=O)Nc2ccccc2[N+](=O)[O-])=N\NC(=O)C(N)=O)ccc1O | > 100 µM (inactive) |  | > 100 µM (inactive) | > 100 µM (inactive) | > 100 µM (inactive) |  |  | > 100 µM (inactive) |  |  | > 100 µM (inactive) |  |  |  | 65.3 µM (inactive) | > 100 µM (inactive) |  | > 100 µM (inactive) | > 100 µM (inactive) | > 100 µM (inactive) |
| CC1CC#CCOC(=O)CCCC1=O (stereo not drawn) | > 100 µM (inactive) |  | > 100 µM (inactive) | > 100 µM (inactive) |  |  | > 100 µM (inactive) | > 100 µM (inactive) |  | > 100 µM (inactive) | > 100 µM (inactive) |  |  | > 100 µM (inactive) |  | > 100 µM (inactive) |  | > 100 µM (inactive) | > 100 µM (inactive) | > 100 µM (inactive) |
| C[N+](C)=c1[nH]c2ccccc2[nH]1 | > 100 µM (inactive) |  |  | > 100 µM (inactive) | > 100 µM (inactive) |  | > 100 µM (inactive) |  |  | > 100 µM (inactive) | > 100 µM (inactive) |  |  | > 100 µM (inactive) | > 100 µM (inactive) | > 100 µM (inactive) | > 100 µM (inactive) | > 100 µM (inactive) | > 100 µM (inactive) | > 100 µM (inactive) |
| CC1(C)CCCC2CC2CCC(C)(C)C1=O (stereo not drawn) | > 100 µM (inactive) | > 100 µM (inactive) | 78.2 µM (inactive) | 42.4 µM (inactive) | 39.5 µM (inactive) | > 100 µM (inactive) | 37.5 µM (inactive) | 43.8 µM (inactive) | > 100 µM (inactive) | 42.9 µM (inactive) | > 100 µM (inactive) | 18.3 µM (inactive) | 28.8 µM (inactive) | 25.2 µM (inactive) | 74.8 µM (inactive) | 27.5 µM (inactive) | 58.3 µM (inactive) | > 100 µM (inactive) | 18.1 µM (inactive) |  |
| COC(=O)C1CCC(=O)N1C(c1ccc2c(c1)OCO2)c1ccc2c(c1)OCO2 (stereo not drawn) | > 100 µM (inactive) | > 100 µM (inactive) | > 100 µM (inactive) | > 100 µM (inactive) | > 100 µM (inactive) | > 100 µM (inactive) | > 100 µM (inactive) | > 100 µM (inactive) | > 100 µM (inactive) | > 100 µM (inactive) | > 100 µM (inactive) | > 100 µM (inactive) | > 100 µM (inactive) | > 100 µM (inactive) | > 100 µM (inactive) | > 100 µM (inactive) | > 100 µM (inactive) | > 100 µM (inactive) | > 100 µM (inactive) |  |
| NC(=O)C1=C(O)C[C@@H]2CC3Cc4cccc(O)c4C(=O)C3=C(O)[C@]2(O)C1=O (stereo partly drawn) | 4.86 µM (inactive) | 2.63 µM (inactive) | 1.8 µM (inactive) | 0.592 µM (active) | 3.07 µM (inactive) | 2.74 µM (inactive) | 1.89 µM (inactive) | 2.23 µM (inactive) | 3.16 µM (inactive) | 1.36 µM (inactive) | 3.69 µM (inactive) | 1.79 µM (inactive) | 3.24 µM (inactive) | 0.755 µM (active) | 1.67 µM (inactive) | 1.77 µM (inactive) | 2 µM (inactive) | 2.02 µM (inactive) | 2.83 µM (inactive) |  |
| Cc1ccc2nc3c(Cl)cc(=O)cc-3sc2c1 | 28.1 µM (inactive) |  | 17.9 µM (inactive) | 19.5 µM (inactive) | 20.2 µM (inactive) |  | 16.7 µM (inactive) | 27.2 µM (inactive) |  | 17.1 µM (inactive) | > 10 µM (inactive) |  |  |  | 21.8 µM (inactive) |  | 30 µM (inactive) | 23.6 µM (inactive) | 5.77 µM (inactive) | 19.7 µM (inactive) |
| CC(=O)NCCCCNCCCNC(C)=O | > 100 µM (inactive) | > 100 µM (inactive) | > 100 µM (inactive) | > 100 µM (inactive) | > 100 µM (inactive) | > 100 µM (inactive) | > 100 µM (inactive) | > 100 µM (inactive) | > 100 µM (inactive) | > 100 µM (inactive) | > 100 µM (inactive) | > 100 µM (inactive) | > 100 µM (inactive) | > 100 µM (inactive) | > 100 µM (inactive) | > 100 µM (inactive) | > 100 µM (inactive) | > 100 µM (inactive) | > 100 µM (inactive) |  |
| CC1(C)CCCC2(C)[C@@H]1CC[C@@]13CC(=O)[C@@](C)(CC[C@@H]21)C3 (stereo partly drawn) | > 100 µM (inactive) |  | 46.1 µM (inactive) | 85.1 µM (inactive) | 32.7 µM (inactive) |  | 20.9 µM (inactive) | 83.4 µM (inactive) |  | 52.5 µM (inactive) | > 100 µM (inactive) |  |  | 57 µM (inactive) | > 100 µM (inactive) | 39.4 µM (inactive) | > 100 µM (inactive) | 95.7 µM (inactive) | 52.4 µM (inactive) | 31.5 µM (inactive) |
